Results from patent US20100144712A1 (priority 2007, published 2010).
In brackets after ≈: the same amount, converted by molar mass. Where two headings read alike, the source gives them in different places.

Legend:
Format in all cases: cell-based
[1] = test system: Aspergillus terreus ATCC 28301; test: In vitro antifungal activity (MIC80), Aspergillus terreus ATCC 28301; conditions: Aspergillus terreus, ATCC28301; Table 3, ATCC 28301; read-out: Minimal inhibitory concentration (MIC80)
Method: (§1) In vitro antifungal activities of the inventive antifungal compounds were evaluated using test strains including Candida albican (ATCC 90873, 204276, 62342, 64124, 64550, 96901, MYA-573, MYA-574, MYA-575, MYA-576, MYA-1003) and Aspergillus fumigatus (ATCC 16424). Test samples and positive control samples were prepared by dissolving the inventive compounds and comparative compounds, i.e., amphotericin B, fluconazole and itraconazole, in DMSO, respectively, and each successively diluted with medium to obtain test and positive control solutions having test compound concentrations of 0.125 μg/ml to a maximum concentration not generating turbidity. Minimal inhibitory concentration (MIC80) of each compound was determined as the lowest concentration of the test compounds required to reduce growth by 80% relative to a control strain not treated.
(§2) 3) Preparation of test samples: the inventive compounds and comparative compounds were each diluted with DMSO to obtain 1 to 2 ml of a test sample in a concentration of 100-folds of the determining maximum concentration (256 μg/ml).
(§3) The test samples were each successively diluted with RPMI 1640 to obtain test solutions having concentrations of […] in a 12×75 mm sterilized disposable culture tube. The final concentration of DMSO was adjusted to […] (v/v).
(§4) Candida albican strains were each subcultured in Sabourad Dextrose Agar, YM Agar or Potato Dextrose Agar medium at 35° C. for 2˜3 days. In the case of yeasts, a single colony was taken from prominent colonies and suspended in 0.85% sterile physiological saline solution and the turbidity of the suspension was adjusted to 80˜82% at 530 nm, and then diluted 50-fold with RPMI 1640 medium to 1.0×10^3˜5.0×10^3 CFU/ml. The turbidity of fungi was adjusted to 80˜82% and the suspension was diluted 50-fold to […]. Aspergillus fumigatus strains were subcultured in Malt Extract Agar for 7˜10 days, and a single colony was taken from prominent colonies and suspended in 0.85% sterile physiological saline solution and the suspension was adjusted to 0.108 at 530 nm, and then diluted 1000-fold with RPMI 1640 medium to 0.4×10^2˜5×10^4 CFU/ml. The turbidity of fungi was adjusted to 80˜82% and the suspension was diluted 50-fold to 0.4102˜0.5104 CFU/ml.
(§5) The strain solutions thus obtained were each seeded into a sterilized 96-well microplate, 0.1 ml of each test solution were added thereto, and […] of alamarblue was treated to each well (Biosource, #DAL1100). This procedure was repeated 2 times.
(§6) Minimal inhibitory concentration (MIC80) of each compound was determined as the lowest concentration of the test compounds required to reduce growth by 80% relative to a control strain not treated.
(§7) MIC80 of each of the compounds of which antifungal activities can be confirmed by Table 2 was determined using other test strains, i.e., Aspergillus fumigatus ATCC 16424 and MYA-1163, Aspergillus terreus ATCC 28301, Aspergillus flavus ATCC MYA-1004, and Aspergillus niger ATCC 9142.

[2] = test system: Candida albican ATCC MYA-1003; test: In vitro antifungal activity (MIC80), Candida albican ATCC MYA-1003; conditions: Candida; Table 2, MYA 1003; read-out: Minimal inhibitory concentration (MIC80)
Method in brief: (§8)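 Broth microdilution in RPMI 1640 with 2% (v/v) final DMSO, test solutions 0.25 to 256 […]. Inoculum of 1.0×10^3–5.0×10^3 CFU/ml came from colonies grown 2–3 days at 35 °C, and alamarBlue was added. MIC80 is the lowest concentration reducing growth by 80% versus untreated control.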

[3] = test system: Candida albican ATCC MYA-575; test: In vitro antifungal activity (MIC80), Candida albican ATCC MYA-575; conditions: Candida; Table 2, MYA 575; read-out: Minimal inhibitory concentration (MIC80)
Method in brief: as §8

[4] = test system: Candida albican ATCC MYA-573; test: In vitro antifungal activity (MIC80), Candida albican ATCC MYA-573; conditions: Candida; Table 2, MYA 573; read-out: Minimal inhibitory concentration (MIC80)
Method in brief: as §8

[5] = test system: Aspergillus fumigatus (ATCC 16424); test: In vitro antifungal activity (MIC80), Aspergillus fumigatus ATCC 16424; conditions: Aspergillus fumigatus, read-out: Minimal inhibitory concentration (MIC80)
Method in brief: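 Broth dilution in RPMI 1640 with 2% (v/v) final DMSO; A. fumigatus inoculum from Malt Extract Agar subculture diluted 1000-fold to 0.4×10^2˜5×10^4 CFU/ml, alamarblue added, repeated 2 times. MIC80 is lowest concentration reducing growth 80% versus untreated control.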

[6] = test system: Candida albican ATCC 90873; test: In vitro antifungal activity (MIC80), Candida albican ATCC 90873; conditions: Candida, ATCC90873; Table 2, ATCC 90873; read-out: Minimal inhibitory concentration (MIC80)
Method in brief: as §8

[7] = test system: Candida albican ATCC MYA-574; test: In vitro antifungal activity (MIC80), Candida albican ATCC MYA-574; conditions: Candida; Table 2, MYA 574; read-out: Minimal inhibitory concentration (MIC80)
Method in brief: as §8

[8] = test system: Aspergillus flavus ATCC MYA-1004; test: In vitro antifungal activity (MIC80), Aspergillus flavus ATCC MYA-1004; conditions: Aspergillus flavus; Table 3, MYA-1004; read-out: Minimal inhibitory concentration (MIC80)
Method: as §1, §2, §3, §4, §5, §6, §7

[9] = test system: Candida albican ATCC 96901; test: In vitro antifungal activity (MIC80), Candida albican ATCC 96901; conditions: Candida, ATCC96901; Table 2, ATCC 96901; read-out: Minimal inhibitory concentration (MIC80)
Method in brief: as §8

[10] = test system: Candida albican ATCC 64550; test: In vitro antifungal activity (MIC80), Candida albican ATCC 64550; conditions: Candida, ATCC64550; Table 2, 64550; read-out: Minimal inhibitory concentration (MIC80)
Method in brief: as §8

[11] = test system: Aspergillus niger ATCC 9142; test: In vitro antifungal activity (MIC80), Aspergillus niger ATCC 9142; conditions: Aspergillus niger, ATCC9142; Table 3, ATCC 9142; read-out: Minimal inhibitory concentration (MIC80)
Method: as §1, §2, §3, §4, §5, §6, §7

[12] = test system: Aspergillus fumigatus MYA-1163; test: In vitro antifungal activity (MIC80), Aspergillus fumigatus MYA-1163; conditions: Aspergillus fumigatus, MYA1163; Table 3, MYA-1163; read-out: Minimal inhibitory concentration (MIC80)
Method: as §1, §2, §3, §4, §5, §6, §7

[13] = test system: Candida albican ATCC 62342; test: In vitro antifungal activity (MIC80), Candida albican ATCC 62342; conditions: Candida, ATCC62342; Table 2, 62342; read-out: Minimal inhibitory concentration (MIC80)
Method in brief: as §8

[14] = test system: Candida albican ATCC MYA-576; test: In vitro antifungal activity (MIC80), Candida albican ATCC MYA-576; conditions: Candida; Table 2, MYA 576; read-out: Minimal inhibitory concentration (MIC80)
Method in brief: as §8

[15] = test system: Candida albican ATCC 64124; test: In vitro antifungal activity (MIC80), Candida albican ATCC 64124; conditions: Candida, ATCC64124; Table 2, 64124; read-out: Minimal inhibitory concentration (MIC80)
Method in brief: as §8

MIC80 [1] [µg/mL] | MIC80 [2] [µg/mL] | MIC80 [3] [µg/mL] | MIC80 [4] [µg/mL] | MIC80 ([5]; ATCC16424, Table 2, ATCC 16424) [µg/mL] | MIC80 ([5]; ATCC16424, Table 3, ATCC 16424) [µg/mL] | MIC80 [6] [µg/mL] | MIC80 [7] [µg/mL] | MIC80 [8] [µg/mL] | MIC80 [9] [µg/mL] | MIC80 [10] [µg/mL] | MIC80 [11] [µg/mL] | MIC80 [12] [µg/mL] | MIC80 [13] [µg/mL] | MIC80 [14] [µg/mL] | MIC80 [15] [µg/mL] | Compound
> 128 | > 128 | 16 (≈ 52.2 µM) | > 128 | > 128 | > 128 | 4 (≈ 13.1 µM) | > 128 | > 128 | > 128 | 32 (≈ 104 µM) | > 128 | > 128 | 8 (≈ 26.1 µM) | 64 (≈ 209 µM) | > 128 | OC(Cn1cncn1)(Cn1cncn1)c1ccc(F)cc1F [F, fluconazole, reference compound]
0.5 (≈ 1.02 µM) | > 128 | 0.125 (≈ 0.256 µM) | 0.25 (≈ 0.511 µM) | 0.125 (≈ 0.256 µM) | 0.125 (≈ 0.256 µM) | 0.125 (≈ 0.256 µM) | 0.25 (≈ 0.511 µM) | 0.25 (≈ 0.511 µM) | 2 (≈ 4.09 µM) | 0.5 (≈ 1.02 µM) | 1 (≈ 2.05 µM) | 0.25 (≈ 0.511 µM) | 0.25 (≈ 0.511 µM) | 0.125 (≈ 0.256 µM) | 4 (≈ 8.18 µM) | C[C@@H](N1CCN(c2nc3ccc(Cl)cc3o2)CC1)[C@](O)(Cn1cncn1)c1ccc(F)cc1F [Example 6, (2R,3R)-3-(4-(6-chlorobenzooxazol-2-yl)piperazin-1-yl)-2-(2,4-difluorophenyl)-1-(1H-1,2,4-triazol-1-yl)butan-2-ol]
1 (≈ 2.33 µM) | 64 (≈ 149 µM) | 0.125 (≈ 0.292 µM) | 1 (≈ 2.33 µM) | 0.125 (≈ 0.292 µM) | 0.125 (≈ 0.292 µM) | 0.125 (≈ 0.292 µM) | 2 (≈ 4.67 µM) | 0.5 (≈ 1.17 µM) | 32 (≈ 74.7 µM) | 2 (≈ 4.67 µM) | 1 (≈ 2.33 µM) | 0.5 (≈ 1.17 µM) | 0.25 (≈ 0.583 µM) | 0.125 (≈ 0.292 µM) | 16 (≈ 37.3 µM) | C[C@@H](N1CCCN(c2ccccn2)CC1)[C@](O)(Cn1cncn1)c1ccc(F)cc1F [Example 38, (2R,3R)-2-(2,4-difluorophenyl)-3-(4-(pyridin-2-yl)-1,4-diazepan-1-yl)-1-(1H-1,2,4-triazol-1-yl)butan-2-ol]
